Test results: patent publication US20240226078A9, “ENHANCEMENT OF MICROFRACTURE FOR REPAIRING CARTILAGE DEFECTS VIA WNT INHIBITION” (University of Pittsburgh - Of the Commonwealth System of …, priority 2021, published 2024)
Converted amounts (≈) assume the structure as drawn.

How the values were obtained:
[1] = system: human bone marrow-derived stem cell (hBMSC)-derived cartilage; experiment: COL1 expression and deposition in hBMSC-derived cartilage under Wnt inhibition (gene expression, immunofluorescence); type: cell-based
Excerpt: FIG. 1 illustrates a comparison of COL1 gene expression in Control and Wnt inhibition (Optimized) group. […] B) Collagen type 1 detection by immunofluorescence. Control group (i-iii); Optimized group (iv-vi). […] Bar −50 μm. […] In general, as used herein small molecule (therapeutic) compounds may, for example, have a molecular weight below 1.5 kDa or below 1.0 kDa.

OA progression in rats = conditions: intraarticular, 0.3 μg dissolved in 50 μl saline (~12 nM); cited from earlier work
[2] = single intraarticular injection; cited from earlier work
humans = conditions: cited from earlier work
[3] = system: hBMSCs/blood clot construct; experiment: In vitro MFx model: chondrogenesis of hBMSCs/blood clot construct; type: cell-based, human; conditions: expected
Excerpt: The cause of post-Mfx fibrocartilage formation remains unclear. An in vitro model hereof may be used to simulate post-MFx tissue remodeling for further study and/or optimization of methodologies hereof Since harvesting human post-MFx clots is not feasible, as one of the initial steps toward human studies/clinical trials, one may simulate such a post-MFx clot by encapsulating stem cells such as hBMSCs within a clot derived from human peripheral blood as described herein. Optimization studies hereof may thus proceed via such a novel in vitro model which simulates post-MFx fibrocartilage formation (see FIG. 3) and assess treatment efficacy. As illustrated schematically in FIG. 4, to mimic the post-MFx clot, stem cells such as human bone marrow-derived stem cells (hBMSCs), the likely progenitor cells contributing to MFx repair, are encapsulated within clots derived from human peripheral blood. hBMSCs/blood clot may be differentiated using, for example, a chondroinductive factor such as insulin growth factor-1 (IGF-1), one of the major synovial fluid chondroinductive factors. The hBMSCs/blood clot may, for example, be induced to differentiate into fibrocartilage upon stimulation by IGF-1 (and/or other chondroinductive factor(s)), at physiological concentration. Application of Wnt inhibitors such lorecivivint in the model allows study of the augmentation of chondrogenesis and/or reduction of fibrosis. The hBMSCs/blood clot is thereby induced to differentiate into fibrocartilage upon such stimulation. Lorecivivint and/or other Wnt inhibitor are added to the clot to study the augmentation of chondrogenesis and reduction of fibrosis.
B. In vitro model—chondrogenesis of hBMSCs/blood clot construct. hBMSCs/blood clots may, for example, be cultured in differentiation medium containing either 0, 10, 20, 50, or 100 ng/ml IGF-1. Lorecivivint may be introduced using the concentrations described above
Preparation of hBMSCs/blood clot construct. […]

hBMSC = conditions: lorecivivint alone, cited from earlier work
[4] = cited from earlier work
[5] = system: in vitro-expanded human chondrocytes; experiment: Western blot analysis of human chondrocytes treated for 3 days; type: cell-based; conditions: vs saline control (FIG. 2)
Excerpt: FIG. 2 illustrates Western blot analysis for human chondrocytes treated with saline control (CON) and lorecivivint (LRC) for 3 days.
In that regards, FIG. 3 illustrates post-MFx events including: A) clot formation; B) stem cell migration, C) fibrogenesis, D) chondrogenesis and bone healing, and E) degeneration. To facilitate rapid clinical translation, it is desirable to repurpose clinically proven. human-safe Wnt inhibitors. Specifically, the Wnt inhibitor lorecivivint (SM04690), which suppresses CDC-like kinase 2 (CLK2) and dual-specificity tyrosine phosphorylation-regulated kinase 1A (DYRK1A) as well as Wnt/β-catenin signaling, has shown promising results for knee osteoarthritis as discussed above. […] The reparative outcome of Wnt- (for example, lorecivivint-) enhanced MFx provides an avenue to achieve long-term hyaline cartilage repair with a minimally invasive and cost-effective procedure, unattainable by current surgical procedures.

Row | SMILES | chondrogenesis [1] | COL1 expression ([1]; compared to controls (FIG. 1A), p<0.05) | COL1 protein deposition ([1]; immunofluorescence, compared to controls (FIG. 1B)) | OA progression (OA progression in rats) | knee joint residence time [2] [days] | safety of injection (humans) | COL1 immunostaining ([3]; treated constructs) | COL1, 3, FN, α-SMA expression levels ([3]; vs untreated group) | COL2, AGG, SOX9, COMP, PRG4, and COL2/COL1 expression levels ([3]; vs untreated group) | COL1 expression (hBMSC; hBMSC chondrogenesis) | initiation of hBMSC chondrogenesis (hBMSC) | solubility [4] [mM] | COL1 expression [5]
1 | Oc1nc(-c2ccc(C(F)(F)F)cc2)nc2c1CSCC2 [XAV939] | without impairing chondrogenesis | significantly lowers | significantly lowers |  |  |  |  |  |  |  |  |  | 
2 | CC(C)CC(=O)Nc1cncc(-c2ccc3[nH]nc(-c4nc5cncc(-c6cccc(F)c6)c5[nH]4)c3c2)c1 [lorecivivint] |  |  |  | significantly ameliorates | > 180 | safe | absent or localized only to the marginal regions | significantly lower | higher than untreated group | minimal | sufficient to initiate hBMSC chondrogenesis | ~5 (≈ 2530 µg/mL) | significantly reduced
